# Measured values reported in ChEMBL document CHEMBL3885861, “Open TG-GATES”.
# Organism: Rattus norvegicus
# Test: Open TG-GATES - Regimen: Daily Repeat
# Type: toxicity, organism-based, Sprague-Dawley
# Set-up: regimen Daily Repeat, gender Male, age 6 weeks
# Details: in vivo, po, route gavage; for gamma-GTP / ALP / AST / BUN / CRE / Ca / Cl / DBIL / GLC / IP / K / LDH / Na / PL / RALB / TBIL / TC / TG / TP: tissue Plasma; for APTT / Bas / Eos / Fbg / Hb / Ht / Lym / MCH / MCHC / MCV / Mono / Neu / PT / Plat / RBC / Ret / WBC: tissue Blood; for KIDNEY_L / KIDNEY_R / KIDNEY_TOTAL: tissue Kidney; for LIVER: tissue Liver
# [1] = 300 mg/kg, 72 h, dose level Middle, time 3 day
# [2] = 300 mg/kg, […], dose level Middle, time 7 day
# [3] = 300 mg/kg, […], dose level Middle, time 14 day
# [4] = 300 mg/kg, […], dose level Middle, time 28 day
compound,measurement,setting,value
COc1ccc2[nH]c([S+]([O-])Cc3ncc(C)c(OC)c3C)nc2c1 (centres undefined) [OMEPRAZOLE],gamma-GTP,"100 mg/kg, […], dose level Low, time 28 day",0.8 IU/L
same,APTT,[1],19.8 s
same,Bas,[1],0%
same,Eos,[1],0.8%
same,Fbg,[1],223 mg/dL
same,Hb,[1],13 g/dL
same,Ht,[1],37.9%
same,Lym,[1],81%
same,MCH,[1],20.9 pg
same,MCHC,[1],34.3%
same,MCV,[1],60.9 fL
same,Mono,[1],3.6%
same,Neu,[1],14%
same,PT,[1],12.2 s
same,Plat,[1],135 x10_4/uL
same,RBC,[1],623 x10_4/ul
same,Ret,[1],4.2%
same,WBC,[1],94 x10_2/uL
same,KIDNEY_L,[1],1 g
same,KIDNEY_R,[1],1 g
same,KIDNEY_TOTAL,[1],2.1 g
same,LIVER,[1],12.8 g
same,ALP,[1],925.8 IU/L
same,AST,[1],61.4 IU/L
same,BUN,[1],14.8 mg/dL
same,CRE,[1],0.4 mg/dL
same,Ca,[1],10.5 mg/dL
same,Cl,[1],100.8 meq/L
same,DBIL,[1],0.058 mg/dL
same,GLC,[1],220.6 mg/dL
same,IP,[1],8.9 mg/dL
same,K,[1],3.9 meq/L
same,LDH,[1],184.6 IU/L
same,Na,[1],139.8 meq/L
same,PL,[1],175.8 mg/dL
same,RALB,[1],3.4 g/dL
same,TBIL,[1],0.1 mg/dL
same,TC,[1],101.2 mg/dL
same,TG,[1],85 mg/dL
same,TP,[1],5.6 g/dL
same,gamma-GTP,[1],1 IU/L
same,TERMINAL_BW,[2],269.3 g
same,TERMINAL_BW,[3],314.9 g
same,TERMINAL_BW,[4],384.1 g
same,APTT,[2],21.7 s
same,Bas,[2],0%
same,Eos,[2],1%
same,Fbg,[2],216.8 mg/dL
same,Hb,[2],13.4 g/dL
same,Ht,[2],39.5%
same,Lym,[2],78.8%
same,MCH,[2],20.6 pg
same,MCHC,[2],33.9%
same,MCV,[2],60.8 fL
same,Mono,[2],3%
same,Neu,[2],17.4%
same,PT,[2],12 s
same,Plat,[2],156.8 x10_4/uL
same,RBC,[2],649.8 x10_4/ul
same,Ret,[2],4.9%
same,WBC,[2],98.4 x10_2/uL
same,APTT,[3],20.3 s
same,Bas,[3],0%
same,Eos,[3],0.8%
same,Fbg,[3],211.4 mg/dL
same,Hb,[3],13.6 g/dL
same,Ht,[3],39.2%
same,Lym,[3],83.8%
same,MCH,[3],20 pg
same,MCHC,[3],34.6%
same,MCV,[3],57.6 fL
same,Mono,[3],2.8%
same,Neu,[3],11.4%
same,PT,[3],12.2 s
same,Plat,[3],128.3 x10_4/uL
same,RBC,[3],681.4 x10_4/ul
same,Ret,[3],4.2%
same,WBC,[3],96 x10_2/uL
same,APTT,[4],21.8 s
same,Bas,[4],0%
same,Eos,[4],0.8%
same,Fbg,[4],203 mg/dL
same,Hb,[4],14.5 g/dL
same,Ht,[4],42.2%
same,Lym,[4],80.4%
same,MCH,[4],18.7 pg
same,MCHC,[4],34.3%
same,MCV,[4],54.6 fL
same,Mono,[4],2.4%
same,Neu,[4],15.6%
same,PT,[4],12.4 s
same,Plat,[4],119.7 x10_4/uL
same,RBC,[4],773.8 x10_4/ul
same,Ret,[4],2.7%
same,WBC,[4],105.1 x10_2/uL
same,KIDNEY_L,[2],1.1 g
same,KIDNEY_R,[2],1.1 g
same,KIDNEY_TOTAL,[2],2.2 g
same,KIDNEY_L,[3],1.3 g
same,KIDNEY_R,[3],1.3 g
same,KIDNEY_TOTAL,[3],2.5 g
same,KIDNEY_L,[4],1.4 g
same,KIDNEY_R,[4],1.4 g
same,KIDNEY_TOTAL,[4],2.9 g
same,LIVER,[2],14.5 g
same,LIVER,[3],15.7 g
same,LIVER,[4],18.2 g
same,ALP,[2],924.4 IU/L
same,AST,[2],63.8 IU/L
same,BUN,[2],17.2 mg/dL
same,CRE,[2],0.4 mg/dL
same,Ca,[2],10.8 mg/dL
same,Cl,[2],101.2 meq/L
same,DBIL,[2],0.086 mg/dL
same,GLC,[2],208.6 mg/dL
same,IP,[2],8.8 mg/dL
same,K,[2],3.8 meq/L
same,LDH,[2],248.4 IU/L
same,Na,[2],140.8 meq/L
same,PL,[2],173.8 mg/dL
same,RALB,[2],3.4 g/dL
same,TBIL,[2],0.1 mg/dL
same,TC,[2],89 mg/dL
same,TG,[2],124.8 mg/dL
same,TP,[2],5.8 g/dL
same,gamma-GTP,[2],1 IU/L
same,ALP,[3],808.4 IU/L
same,AST,[3],62 IU/L
same,BUN,[3],17.2 mg/dL
same,CRE,[3],0.5 mg/dL
same,Ca,[3],10.5 mg/dL
same,Cl,[3],101.6 meq/L
same,DBIL,[3],0.066 mg/dL
same,GLC,[3],205.4 mg/dL
same,IP,[3],8.3 mg/dL
same,K,[3],3.9 meq/L
same,LDH,[3],198 IU/L
same,Na,[3],141.4 meq/L
same,PL,[3],162.6 mg/dL
same,RALB,[3],3.6 g/dL
same,TBIL,[3],0.1 mg/dL
same,TC,[3],84.4 mg/dL
same,TG,[3],78.4 mg/dL
same,TP,[3],6 g/dL
same,gamma-GTP,[3],0.8 IU/L
same,ALP,[4],521.6 IU/L
same,AST,[4],56.2 IU/L
same,BUN,[4],15.6 mg/dL
same,CRE,[4],0.5 mg/dL
same,Ca,[4],10.3 mg/dL
same,Cl,[4],101.6 meq/L
same,DBIL,[4],0.062 mg/dL
same,GLC,[4],221.8 mg/dL
same,IP,[4],7.3 mg/dL
same,K,[4],3.7 meq/L
same,LDH,[4],135 IU/L
same,Na,[4],141.6 meq/L
same,PL,[4],134.8 mg/dL
same,RALB,[4],3.5 g/dL
same,TBIL,[4],0.1 mg/dL
same,TC,[4],70 mg/dL
same,TG,[4],66 mg/dL
same,TP,[4],6.1 g/dL
same,gamma-GTP,[4],1 IU/L
